Results on 3 substances are retold here after patent US8440637B2, “Combination treatment for the treatment of hepatitis C virus infection” (priority 2007, dated 2013).

Strand notation (5' to 3'): a small letter for the sugar, then the base; units joined by * are phosphorothioate-linked, units joined directly phosphodiester-linked; [ ] holds rarer units or linkages, { } end groups; capitals alone tell only the bases. l = locked nucleic acid (LNA); [5mC] = 5-methylcytosine; d = 2'-deoxy (DNA)

The subject of data set [1] is miR-122a. As to the kind of experiment: Melting temperature (Tm) of LNA anti-miR/miR-122a RNA duplex. The class given is physicochemical, human. The conditions noted are these: for Tm, oligo to miR-122 RNA complement: miR-122a; for Tm (° C.): Table 2, towards synthetic miR-122a RNA oligonucleotide with phosphorothioate linkages, PS backbone. On the procedure: The melting temperatures were assessed towards the mature miR-122a sequence, using a synthetic miR-122a RNA oligonucleotide with phosphorothioate linkaged.
(§1) The LNA anti-miR/miR-122a oligo duplex was diluted to 3 μM in 500 μl RNase free H2O, which was then mixed with 500 μl 2× dimerization buffer (final oligo/duplex conc. 1.5 μM, 2× Tm buffer: 200 mM NaCl, 0.2 mM EDTA, 20 mM NaP, pH 7.0, DEPC treated to remove RNases). The mix was first heated to 95 degrees for 3 minutes, then allowed to cool at room temperature (RT) for 30 minutes.
(§2) Following RT incubation Tm was measured on Lambda 40 UV/VIS Spectrophotometer with peltier temperature progammer PTP6 using PE Templab software (Perkin Elmer). The temperature was ramped up from 20° C. to 95° C. and then down again to 20° C., continuously recording absorption at 260 nm. First derivative and local maximums of both the melting and annealing was used to assess melting/annealing point (Tm), both should give similar/same Tm values. For the first derivative 91 points was used to calculate the slope.

The subject of another data set is HCV replicon (NNeo/C-5B). As to the kind of experiment: HCV replication in Huh-7 cells transfected with HCV replicon, Northern blot. In kind it is cell-based, Hepatitis C virus. The conditions noted are these: Huh-7 with HCV replicon; 48 hours; compared to mock and mismatch control. On the procedure: We assess the efficacy of SEQ ID NO: 63 reducing HCV replication in the Huh-7 based cell model. Preliminary data on SEQ ID NO: 63 along with its truncated version SEQ ID NO: 66 (13-mer LNA-antimiR) and 4 nt mismatch control from inhibiting HCV replication in the Huh-7 cell line transfected with a HCV replicon (NNeo/C-5B). The different LNA-antimiR molecules along with a 2′ OMe antisense and scramble oligonucleotide were transfected into Huh-7 cells, HCV was allowed to replicate for 48 hours. Total RNA samples extracted from the Huh-7 cells were subjected to Northern blot analysis.
A general note: Replicon systems follow genome replication, usually without infectious particles.

Data set [2] deals with miR-122a. As to the kind of experiment: Plasma cholesterol in LNA anti-miR122 treated mice. The conditions noted are these: Day 6; i.p. on day 0, 2 and 4. In kind it is in vivo, mouse. The method, then:
In vivo study: Ten groups of animals (female C57/BL6; 3 mice per group) were treated in the following manner. Group 1 animals were injected with 0.2 ml saline by i.p. on day 0, day 2 and day 4. Groups 2-10 were dosed by i.p. with three different conc. (25 mg/kg, 5 mg/kg and 1 mg/kg) of either LNA antimiR-122a/SEQ ID NO: 61 (group 2-4), LNA antimir-122a/SEQ ID NO: 66 (group 5-7) or LNA antimir-122a/SEQ ID NO: 63 (group 8-10); the LNA antimir-122a sequences are given in the Table 1. All three LNA antimiR-122a oligonucleotides target the liver-specific miR-122a. The doses were calculated from the Day 0 body weights of each animal.
The animals were sacrificed 48 hours after last dose (Day 6), retro-orbital blood was collected in tubes containing EDTA and the plasma fraction harvested and stored frozen −80° C. for cholesterol analysis. At sacrifice livers were dissected and one portion was cut into 5 mm cubes and immersed in 5 volumes of ice-cold RNAlater. […]
Total cholesterol level was measured in plasma using a colometric assay Cholesterol CP from ABX Pentra. Cholesterol was measured following enzymatic hydrolysis and oxidation (2,3). […] 250 μl reagent was added and within 5 min the cholesterol content measured at a wavelength of 540 nm. […] The cholesterol level was determined by subtraction of the background and presented relative to the cholesterol levels in plasma of saline treated mice.

The test system of another data set is miR-122. In words: microRNA specific northern blot of mouse liver RNA. The class given is in vivo. The method, then:
We decided to assess the effect of SEQ ID NO:63 on miR-122 miRNA levels in the livers of SEQ ID NO: 63-treated mice. The LNA-antimiRs SEQ ID NO:63 and SEQ ID NO: 61 were administered into mice by three i.p. injections on every second day over a six-day-period at indicated doses followed by sacrificing the animals 48 hours after the last dose. Total RNA was extracted from the livers. miR-122 levels were assessed by microRNA specific northern blot (FIG. 6)
The liver RNA was also subjected to microRNA Northern blot. Shown in FIG. 13 is a membrane probed with a miR-122a specific probe (upper panel) and re-probed with a Let-7 specific probe (lower panel). With the miR-122 probe, two bands could be detected, one corresponding to mature miR-122 and one corresponding to a duplex between SEQ ID NO: 61 and miR-122.
Preparation of northern membranes was done as described in Sempere et al. 2002, except for the following changes: Total RNA, 10 μg per lane, in formamide loading buffer (47.5% formamide, 9 mM EDTA, 0.0125% Bromophenol Blue, 0.0125% Xylene Cyanol, 0.0125% SDS) was loaded onto a 15% denaturing Novex TBE-Urea polyacrylamide gel (Invitrogen) without preheating the RNA. The RNA was electrophoretically transferred to a GeneScreen plus Hybridization Transfer Membrane (PerkinElmer) at 200 mA for 35 min. Membranes were probed with 32P-labelled LNA-modified oligonucleotides complimentary to the mature microRNAs*. The LNA oligonucleotides were labelled and hybridized to the membrane as described in (Válóczi et al. 2004) except for the following changes: The prehybridization and hybridization solutions contained 50% formamide, 0.5% SDS, 5×SSC, 5×Denhardt's solution and 20 μg/ml sheared denatured herring sperm DNA. Hybridizations were performed at 45° C. The blots were visualized by scanning in a Storm 860 scanner. The signal of the background membrane was subtracted from the radioactive signals originating from the miRNA bands. The values of the miR-122 signals were corrected for loading differences based on the let-7a signal. […]

The next data set deals with 122R, DNA. In words: Melting temperature (Tm) of oligo against DNA complement. The class given is physicochemical. On the procedure:
as §1, §2
However, in one embodiment the Tm may be made with a complementary DNA ([…]) molecule. Typically the Tm measured against a DNA complementary molecule is about 10° C. lower than the Tm with an equivalent RNA complement. The Tm measured using the DNA complement may therefore be used in cases where the duplex has a very high Tm.

Turning to “5′-AttGTcaCaCtCC-3′ (antisense lA*dT*dT*lG*lT*dC*dA*l[5mC]*dA*l[5mC]*dT*l[5mC]*l[5mC]) [SEQ ID NO: 66]”, the “Tm, oligo to miR-122 RNA complement” value in the data set on miR-122a [1] stood at 74 °C. The “HCV RNA / inhibition of HCV replication (in words)” value in the data set on HCV replicon (NNeo/C-5B) is given as “comparable efficacy with SEQ ID NO: 63”. Moreover, the “plasma cholesterol compared to saline control (in words)” value in the data set on miR-122a [2] is “markedly lowered level of plasma cholesterol”.
As to “5′-CcAttGTcaCaCtCC-3′ (antisense CCATTGTCACACTCC; sugars from the 5' end ldlddllddldldll, backbone and methylation of C not given here) [SEQ ID NO: 63]”, in the data set on miR-122a [1], the “Tm (° C.)” value worked out at 78 °C and the “Tm, oligo to miR-122 RNA complement” value came to 79 °C. Besides, the “blocking of miR-122, northern blot (in words)” value in the data set with miR-122 (three i.p. injections every second day, 5 and 25 mg/kg, 48 hours after last dose) is listed as “completely blocked miR-122”. Also, the “duplex versus mature band on northern blot, comparison (in words)” value with miR-122 (three i.p. injections every second day, 48 hours after last dose) was “equally efficient at 1 mg/kg as SEQ ID NO: 61SEQ ID NO: 61 at 25 mg/kg”. The “Tm, oligo to DNA complement” value in the data set on 122R, DNA was 66 °C. Also, the “HCV RNA / inhibition of HCV replication (in words)” value in the data set with HCV replicon (NNeo/C-5B) was “significant reduction of HCV RNA”. In addition, in the data set with miR-122a [2], the “plasma cholesterol compared to saline control (in words)” value is “markedly lowered level of plasma cholesterol”.
With “5′-ccAttGtcAcaCtcCa-3′ (antisense CCATTGTCACACTCCA; sugars from the 5' end ddlddlddlddlddld, backbone and methylation of C not given here) [SEQ ID NO: 61]”, in the data set with miR-122a [1], the “Tm (° C.)” value worked out at 69 °C and the “Tm, oligo to miR-122 RNA complement” value is 69 °C. The “mature miR-122, small RNA northern blot (in words)” value in the data set with miR-122 (liver RNA, let-7a control not altered) is recorded as “significantly reduced levels of detectable mature miR-122”. In addition, the “Tm, oligo to DNA complement” value in the data set with 122R, DNA amounted to 57 °C.
